Test results taken from patent US20230085307A1, “PYRIDAZINONE COMPOUND AND HERBICIDE” (NISSAN CHEMICAL CORPORATION, priority 2019, published 2023).

Assays:
wild oat [1] = test: Test Example 4: herbicidal effect by soil treatment (Table 19, symbol I); type: in vivo, wild oat (Avena fatua); conditions: amount of applied herbicide 320 g/ha
In short: (§1)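 Scoring uses the grading scale of an earlier test, three weeks post-application. Treatment consists of spraying a diluted emulsion formulation across the surface of sterilized diluvial soil in which seeds are buried near 1.5 cm deep; boxes are kept in a greenhouse between 25° C. and 30° C.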

southern crabgrass [2] = test: Test Example 4: herbicidal effect by soil treatment (Table 19, symbol F); type: in vivo, southern crabgrass (Digitaria ciliaris); conditions: amount of applied herbicide 320 g/ha
In short: as §1

lambsquarters [3] = test: Test Example 5: herbicidal effect by foliage application, plastic box (Table 20, symbol O); type: in vivo, lambsquarters (Chenopodium album); conditions: foliage application after 14-day growth, evaluated three weeks after application
In short: (§2)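 Post-emergence foliar test in sterilized diluvial soil. Compound applied as water-diluted emulsion at a predetermined rate to 14-day-old plants; evaluation at three weeks.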

blackgrass [4] = test: Test Example 4: herbicidal effect by soil treatment (Table 19, symbol J); type: in vivo, blackgrass (Alopecurus myosuroides); conditions: amount of applied herbicide 320 g/ha
In short: as §1

barnyard grass [5] = test: Test Example 5: herbicidal effect by foliage application, plastic box (Table 20, symbol H); type: in vivo, barnyard grass (Echinochloa crus-galli); conditions: foliage application after 14-day growth, evaluated three weeks after application
In short: as §2

redroot pigweed [6] = test: Test Example 4: herbicidal effect by soil treatment (Table 19, symbol N); type: in vivo, redroot pigweed (Amaranthus retroflexus); conditions: amount of applied herbicide 320 g/ha
In short: as §1

velvetleaf [7] = test: Test Example 4: herbicidal effect by soil treatment (Table 19, symbol M); type: in vivo, velvetleaf (Abutilon theophrasti); conditions: amount of applied herbicide 320 g/ha
In short: as §1

redroot pigweed [8] = test: Test Example 5: herbicidal effect by foliage application, plastic box (Table 20, symbol N); type: in vivo, redroot pigweed (Amaranthus retroflexus); conditions: foliage application after 14-day growth, evaluated three weeks after application
In short: as §2

Italian ryegrass [9] = test: Test Example 5: herbicidal effect by foliage application, plastic box (Table 20, symbol K); type: in vivo, Italian ryegrass (Lolium multiflorum); conditions: foliage application after 14-day growth, evaluated three weeks after application
In short: as §2

blackgrass [10] = test: Test Example 5: herbicidal effect by foliage application, plastic box (Table 20, symbol J); type: in vivo, blackgrass (Alopecurus myosuroides); conditions: foliage application after 14-day growth, evaluated three weeks after application
In short: as §2

green foxtail [11] = test: Test Example 5: herbicidal effect by foliage application, plastic box (Table 20, symbol G); type: in vivo, green foxtail (Setaria viridis); conditions: foliage application after 14-day growth, evaluated three weeks after application
In short: as §2

wild oat [12] = test: Test Example 5: herbicidal effect by foliage application, plastic box (Table 20, symbol I); type: in vivo, wild oat (Avena fatua); conditions: foliage application after 14-day growth, evaluated three weeks after application
In short: as §2

barnyard grass [13] = test: Test Example 4: herbicidal effect by soil treatment (Table 19, symbol H); type: in vivo, barnyard grass (Echinochloa crus-galli); conditions: amount of applied herbicide 320 g/ha
In short: as §1

Chinese sprangletop = test: Test Example 3: herbicidal effect by foliage application, Wagner pot (Table 18, symbol D); type: in vivo, chinese sprangletop (Leptochloa chinensis); conditions: 320 g/ha
In short: (§3)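 Plants were sown in alluvial soil held under 0.1–0.5 cm standing water and grown 14 days in a greenhouse at 25–30 °C. An emulsifiable formulation, water-diluted to the set dose, was then sprayed onto the foliage, and effects were scored three weeks later using previously defined criteria.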

persian speedwell [14] = test: Test Example 5: herbicidal effect by foliage application, plastic box (Table 20, symbol R); type: in vivo, Persian speedwell (Veronica persica); conditions: foliage application after 14-day growth, evaluated three weeks after application
In short: as §2

barnyard grass [15] = test: Test Example 3: herbicidal effect by foliage application, Wagner pot (Table 18, symbol H); type: in vivo, barnyard grass (Echinochloa crus-galli); conditions: 320 g/ha
In short: as §3

southern crabgrass [16] = test: Test Example 5: herbicidal effect by foliage application, plastic box (Table 20, symbol F); type: in vivo, southern crabgrass (Digitaria ciliaris); conditions: foliage application after 14-day growth, evaluated three weeks after application
In short: as §2

velvetleaf [17] = test: Test Example 5: herbicidal effect by foliage application, plastic box (Table 20, symbol M); type: in vivo, velvetleaf (Abutilon theophrasti); conditions: foliage application after 14-day growth, evaluated three weeks after application
In short: as §2

lambsquarters [18] = test: Test Example 4: herbicidal effect by soil treatment (Table 19, symbol O); type: in vivo, lambsquarters (Chenopodium album); conditions: amount of applied herbicide 320 g/ha
In short: as §1

persian speedwell [19] = test: Test Example 4: herbicidal effect by soil treatment (Table 19, symbol R); type: in vivo, Persian speedwell (Veronica persica); conditions: amount of applied herbicide 320 g/ha
Excerpt: [Test Example 4] Herbicidal Effect Test by Soil Treatment
Sterilized diluvial soil was placed in a plastic box having a length of 21 cm, a width of 13 cm, and a depth of 7 cm. The seeds of each of southern crabgrass, green foxtail, barnyard grass, wild oat, blackgrass, Italian ryegrass, windgrass, velvetleaf, redroot pigweed, lambsquarters, chickweed, false cleavers, persian speedwell, corn, soybean, rice, wheat, beet, and rapeseed were sowed in a spot-like manner and covered with the soil having a thickness of about 1.5 cm. Subsequently, the emulsion agent of the compound of the present invention prepared according to Formulation Example 2 was diluted with water so as to achieve a predetermined herbicide amount, and the diluted emulsion agent was uniformly applied to the surface of the soil with a small-sized spray. The plastic box was placed in a greenhouse at 25° C. to 30° C. for growth of the plants. Three weeks after the herbicide application, the effect of the herbicide on each plant was evaluated according to the criteria of Test Example 1.

chickweed [20] = test: Test Example 5: herbicidal effect by foliage application, plastic box (Table 20, symbol P); type: in vivo, common chickweed (Stellaria media); conditions: foliage application after 14-day growth, evaluated three weeks after application
In short: as §2

green foxtail [21] = test: Test Example 4: herbicidal effect by soil treatment (Table 19, symbol G); type: in vivo, green foxtail (Setaria viridis); conditions: amount of applied herbicide 320 g/ha
In short: as §1

chickweed [22] = test: Test Example 4: herbicidal effect by soil treatment (Table 19, symbol P); type: in vivo, common chickweed (Stellaria media); conditions: amount of applied herbicide 320 g/ha
In short: as §1

Italian ryegrass [23] = test: Test Example 4: herbicidal effect by soil treatment (Table 19, symbol K); type: in vivo, Italian ryegrass (Lolium multiflorum); conditions: amount of applied herbicide 320 g/ha
In short: as §1

rice flat sedge = test: Test Example 3: herbicidal effect by foliage application, Wagner pot (Table 18, symbol E); type: in vivo, rice flat sedge (Cyperus iria); conditions: 320 g/ha
In short: as §3

windgrass = test: Test Example 5: herbicidal effect by foliage application, plastic box (Table 20, symbol L); type: in vivo, windgrass (Apera spica-venti); conditions: foliage application after 14-day growth, evaluated three weeks after application
In short: as §2

[24] = amount of applied herbicide 320 g/ha

Cc1nn(C)c(=O)c(-c2c(-c3ccc(C(F)(F)F)cc3)sc3c(F)cccc23)c1O [4-044]
Herbicidal effect by soil treatment, I: wild oat (wild oat [1]): 0 (Herbicidal rate of 5% or less (almost no effect))
Herbicidal effect by soil treatment, F: southern crabgrass (southern crabgrass [2]): 0 (Herbicidal rate of 5% or less (almost no effect))
herbicidal effect on O: lambsquarters (evaluation grade 0-5) (lambsquarters [3]; 320 g/ha): 3 (Herbicidal rate of 40% or more and less than 70%)
Herbicidal effect by soil treatment, J: blackgrass (blackgrass [4]): 0 (Herbicidal rate of 5% or less (almost no effect))
herbicidal effect on H: barnyard grass (evaluation grade 0-5) (barnyard grass [5]; 320 g/ha): 2 (Herbicidal rate of 20% or more and less than 40%)
Herbicidal effect by soil treatment, N: redroot pigweed (redroot pigweed [6]): 0 (Herbicidal rate of 5% or less (almost no effect))
Herbicidal effect by soil treatment, M: velvetleaf (velvetleaf [7]): 0 (Herbicidal rate of 5% or less (almost no effect))
herbicidal effect on N: redroot pigweed (evaluation grade 0-5) (redroot pigweed [8]; 320 g/ha): 4 (Herbicidal rate of 70% or more and less than 90%)
herbicidal effect on K: Italian ryegrass (evaluation grade 0-5) (Italian ryegrass [9]; 320 g/ha): 4 (Herbicidal rate of 70% or more and less than 90%)
herbicidal effect on J: blackgrass (evaluation grade 0-5) (blackgrass [10]; 320 g/ha): 0 (Herbicidal rate of 5% or less (almost no effect))
herbicidal effect on G: green foxtail (evaluation grade 0-5) (green foxtail [11]; 320 g/ha): 1 (Herbicidal rate of 5% or more and less than 20%)
herbicidal effect on I: wild oat (evaluation grade 0-5) (wild oat [12]; 320 g/ha): 0 (Herbicidal rate of 5% or less (almost no effect))
Herbicidal effect by soil treatment, H: barnyard grass (barnyard grass [13]): 0 (Herbicidal rate of 5% or less (almost no effect))
herbicidal effect on Chinese sprangletop (D) (Chinese sprangletop): 5 (Herbicidal rate of 90% or more (almost completely withered))
herbicidal effect on R: persian speedwell (evaluation grade 0-5) (persian speedwell [14]; 320 g/ha): 5 (Herbicidal rate of 90% or more (almost completely withered))
herbicidal effect on barnyard grass (H) (barnyard grass [15]): 5 (Herbicidal rate of 90% or more (almost completely withered))
herbicidal effect on F: southern crabgrass (evaluation grade 0-5) (southern crabgrass [16]; 320 g/ha): 0 (Herbicidal rate of 5% or less (almost no effect))
herbicidal effect on M: velvetleaf (evaluation grade 0-5) (velvetleaf [17]; 320 g/ha): 3 (Herbicidal rate of 40% or more and less than 70%)
Herbicidal effect by soil treatment, O: lambsquarters (lambsquarters [18]): 0 (Herbicidal rate of 5% or less (almost no effect))
Herbicidal effect by soil treatment, R: persian speedwell (persian speedwell [19]): 3 (Herbicidal rate of 40% or more and less than 70%)
herbicidal effect on P: chickweed (evaluation grade 0-5) (chickweed [20]; 320 g/ha): 5 (Herbicidal rate of 90% or more (almost completely withered))
Herbicidal effect by soil treatment, G: green foxtail (green foxtail [21]): 0 (Herbicidal rate of 5% or less (almost no effect))
Herbicidal effect by soil treatment, P: chickweed (chickweed [22]): 1 (Herbicidal rate of 5% or more and less than 20%)
Herbicidal effect by soil treatment, K: Italian ryegrass (Italian ryegrass [23]): 0 (Herbicidal rate of 5% or less (almost no effect))
herbicidal effect on rice flat sedge (E) (rice flat sedge): 5 (Herbicidal rate of 90% or more (almost completely withered))
herbicidal effect on L: windgrass (evaluation grade 0-5) (windgrass; 320 g/ha): 5 (Herbicidal rate of 90% or more (almost completely withered))

COc1cc(F)ccc1-c1sc2cc(F)c(F)cc2c1-c1c(O)c(C)nn(C)c1=O [5-029]
I: wild oat, herbicidal effect grade (wild oat [1]): 2 (Herbicidal rate of 20% or more and less than 40%)
F: southern crabgrass, herbicidal effect grade (southern crabgrass [2]): 0 (Herbicidal rate of 5% or less (almost no effect))
Herbicidal effect by foliage application, O: lambsquarters (lambsquarters [3]; [24]): 5 (Herbicidal rate of 90% or more (almost completely withered))
J: blackgrass, herbicidal effect grade (blackgrass [4]): 4 (Herbicidal rate of 70% or more and less than 90%)
Herbicidal effect by foliage application, H: barnyard grass (barnyard grass [5]; [24]): 5 (Herbicidal rate of 90% or more (almost completely withered))
N: redroot pigweed, herbicidal effect grade (redroot pigweed [6]): 5 (Herbicidal rate of 90% or more (almost completely withered))
M: velvetleaf, herbicidal effect grade (velvetleaf [7]): 3 (Herbicidal rate of 40% or more and less than 70%)
Herbicidal effect by foliage application, N: redroot pigweed (redroot pigweed [8]; [24]): 5 (Herbicidal rate of 90% or more (almost completely withered))
Herbicidal effect by foliage application, K: Italian ryegrass (Italian ryegrass [9]; [24]): 4 (Herbicidal rate of 70% or more and less than 90%)
Herbicidal effect by foliage application, J: blackgrass (blackgrass [10]; [24]): 4 (Herbicidal rate of 70% or more and less than 90%)
Herbicidal effect by foliage application, G: green foxtail (green foxtail [11]; [24]): 5 (Herbicidal rate of 90% or more (almost completely withered))
Herbicidal effect by foliage application, I: wild oat (wild oat [12]; [24]): 4 (Herbicidal rate of 70% or more and less than 90%)
H: barnyard grass, herbicidal effect grade (barnyard grass [13]): 0 (Herbicidal rate of 5% or less (almost no effect))
herbicidal effect on Chinese sprangletop (D) (Chinese sprangletop): 4 (Herbicidal rate of 70% or more and less than 90%)
Herbicidal effect by foliage application, R: persian speedwell (persian speedwell [14]; [24]): 5 (Herbicidal rate of 90% or more (almost completely withered))
herbicidal effect on barnyard grass (H) (barnyard grass [15]): 4 (Herbicidal rate of 70% or more and less than 90%)
Herbicidal effect by foliage application, F: southern crabgrass (southern crabgrass [16]; [24]): 3 (Herbicidal rate of 40% or more and less than 70%)
Herbicidal effect by foliage application, M: velvetleaf (velvetleaf [17]; [24]): 5 (Herbicidal rate of 90% or more (almost completely withered))
O: lambsquarters, herbicidal effect grade (lambsquarters [18]): 5 (Herbicidal rate of 90% or more (almost completely withered))
R: persian speedwell, herbicidal effect grade (persian speedwell [19]): 3 (Herbicidal rate of 40% or more and less than 70%)
Herbicidal effect by foliage application, P: chickweed (chickweed [20]; [24]): 5 (Herbicidal rate of 90% or more (almost completely withered))
G: green foxtail, herbicidal effect grade (green foxtail [21]): 3 (Herbicidal rate of 40% or more and less than 70%)
P: chickweed, herbicidal effect grade (chickweed [22]): 3 (Herbicidal rate of 40% or more and less than 70%)
K: Italian ryegrass, herbicidal effect grade (Italian ryegrass [23]): 1 (Herbicidal rate of 5% or more and less than 20%)
herbicidal effect on rice flat sedge (E) (rice flat sedge): 5 (Herbicidal rate of 90% or more (almost completely withered))
Herbicidal effect by foliage application, L: windgrass (windgrass; [24]): 5 (Herbicidal rate of 90% or more (almost completely withered))
